From ChEMBL document CHEMBL3046600, “1-Phenoxyalkyl-4-[(N,N-disubstitutedamino)alkyl]piperazine derivatives as non-imidazole histamine H3-antagonists” (Med Chem Res, 2013)

molecular target: T1, Histamine H3 receptor (Cavia porcellus, UniProt Q9JI35); test: Antagonist activity at histamine H3 receptor in Cavia porcellus (guinea pig) ileum assessed as inhibition of electrically-induced contraction; type: tissue-based; details: read-out: pA2 (converted)
T1 sequence (Q9JI35 whole entry): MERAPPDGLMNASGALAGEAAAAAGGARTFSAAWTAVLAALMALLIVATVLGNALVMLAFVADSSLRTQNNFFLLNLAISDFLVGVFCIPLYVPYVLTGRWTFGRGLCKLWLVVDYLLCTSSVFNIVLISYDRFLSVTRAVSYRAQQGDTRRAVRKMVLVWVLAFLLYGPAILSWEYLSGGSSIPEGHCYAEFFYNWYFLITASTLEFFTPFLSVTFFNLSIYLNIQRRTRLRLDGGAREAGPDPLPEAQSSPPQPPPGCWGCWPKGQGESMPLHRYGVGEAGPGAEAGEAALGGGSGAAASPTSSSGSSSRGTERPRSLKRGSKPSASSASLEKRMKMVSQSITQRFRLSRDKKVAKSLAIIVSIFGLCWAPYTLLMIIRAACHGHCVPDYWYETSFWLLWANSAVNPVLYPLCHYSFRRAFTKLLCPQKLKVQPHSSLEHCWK

Kb [µM]	SMILES
0.105	CN(CCCCN1CCN(CCCCCCCOc2ccccc2)CC1)C(=O)c1ccccc1
0.1	CN(CCCCN1CCN(CCCCCCCOc2ccccc2)CC1)C(=O)C(F)(F)F
0.0692	CC(=O)N(C)CCCCN1CCN(CCCCCCCOc2ccccc2)CC1

molecular target: Histamine H1 receptor (Cavia porcellus, UniProt P31389); test: Antagonist activity at histamine H1 receptor in Cavia porcellus (guinea pig) ileum assessed as inhibition of histamine-induced contraction; details: read-out: pA2 (converted)
Sequence (P31389 whole entry): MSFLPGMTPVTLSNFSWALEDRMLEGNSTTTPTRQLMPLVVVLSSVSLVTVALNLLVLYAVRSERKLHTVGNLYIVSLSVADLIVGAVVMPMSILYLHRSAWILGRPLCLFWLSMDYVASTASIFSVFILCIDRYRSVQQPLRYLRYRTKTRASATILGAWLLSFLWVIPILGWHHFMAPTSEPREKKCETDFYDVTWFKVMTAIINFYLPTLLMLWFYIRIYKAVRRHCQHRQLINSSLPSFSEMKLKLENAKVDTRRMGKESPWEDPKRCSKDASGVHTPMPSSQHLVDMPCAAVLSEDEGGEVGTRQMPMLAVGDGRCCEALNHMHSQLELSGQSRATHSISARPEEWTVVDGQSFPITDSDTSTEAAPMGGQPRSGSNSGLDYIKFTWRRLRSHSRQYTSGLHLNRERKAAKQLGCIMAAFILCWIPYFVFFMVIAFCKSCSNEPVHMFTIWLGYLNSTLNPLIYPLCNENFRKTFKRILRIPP

Kb [µM]	SMILES
> 100	NCCCCN1CCN(CCCCCCCOc2ccccc2)CC1

molecular target: T1, Histamine H3 receptor; test: Antagonist activity at histamine H3 receptor in Cavia porcellus (guinea pig) jejunum assessed as inhibition of electrically-induced contraction; details: read-out: pA2 (converted)

SMILES	Kb [µM]
NCCCCCCN1CCN(CCCCCCCOc2ccccc2)CC1	0.214
NCCCN1CCN(CCCCCCCCCOc2ccccc2)CC1	0.102
NCCCCN1CCN(CCCCCCCOc2ccccc2)CC1	0.0661
NCCCCCN1CCN(CCCCCCCOc2ccccc2)CC1	0.102
NCCCCCCCN1CCN(CCCCCCCOc2ccccc2)CC1	0.214
NCCN1CCN(CCCCCCCOc2ccccc2)CC1	0.38
S=C(NC1CCCCC1)N1CCC(c2cnc[nH]2)CC1 [THIOPERAMIDE]	0.00219

Next, values leading:

Kb [µM]	SMILES
0.158	NCCCN1CCN(CCCCCOc2ccccc2)CC1
0.178	NCCCN1CCN(CCOc2ccccc2)CC1
0.513	NCCCN1CCN(CCCOc2ccccc2)CC1
0.145	NCCCN1CCN(CCCCCCCCOc2ccccc2)CC1
0.191	NCCCN1CCN(CCCCCCOc2ccccc2)CC1
0.24	NCCCN1CCN(CCCCOc2ccccc2)CC1
0.0912	NCCCN1CCN(CCCCCCCOc2ccccc2)CC1
